Paper PMC4594923, “Food Polyphenols Fail to Cause a Biologically Relevant Reduction of COX-2 Activity” (PLoS ONE, 2015)
Marks after values point to notes of the source that are not given here.

Columns and labels:
[1] = tested on: arachidonic acid (AA) cascade; test: liver tissue oxylipin/PG levels in LPS induced sepsis in mice; format: in vivo, C57BL/6N mice; details: liver tissue 24 h after LPS treatment;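 further: male C57BL/6N mice pretreated i.p. with polyphenols at 100 mg/kg bw or vehicle before LPS, liver oxylipins measured by LC-MS after solid-phase extraction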
From the text: (§1) Twelve week old male C57BL/6N mice (Charles River, Sulzfeld, Germany) were used for all experiments. C57BL/6 male mice (H2^b, 11–13 weeks of age) were obtained from Charles River (Sulzfeld, Germany). Animals were cared for in accordance with the institution’s guidelines for experimental animals and with the guidelines of the American Physiological Society. […] Mice were monitored closely and if they appeared compromised (i.e. inactivity, no intake of food or water) after compound or LPS injection the experiment was terminated.
(§2) Oxylipin levels were analyzed in plasma and tissues by LC-MS following SPE extraction of 200 μl plasma or tissue homogenate (50 mg) on Chromabond C18 ec cartridges (Machery-Nagel, Düren, Germany) [19].
(§3) GraphPad Prism 5.0 (GraphPad Software, San Diego, USA) was used for data analysis, the fitting of dose response curves and calculation of the IC50 values. Statistical differences were determined by Dunnetts test (LPS vs. other groups).

[2] = tested on: arachidonic acid (AA) cascade; test: kidney tissue oxylipin/PG levels in LPS induced sepsis in mice;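 further: male C57BL/6N mice challenged with LPS, kidney taken 24 h later, oxylipins quantified by LC-MS after solid-phase extraction of tissue homogenate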
From the text: as §1, §2, §3

[3] = kidney tissue 24 h after LPS treatment, LPS +, mean
[4] = kidney tissue 24 h after LPS treatment, LPS +, mean, < = below LOQ
[5] = mice, compound i. p. 100 mg/kg bw 2 h before LPS, 24 h after LPS, vs. LPS group

Oc1ccc(/C=C/c2cc(O)cc3c2[C@@H](c2cc(O)cc(O)c2)[C@H](c2ccc(O)cc2)O3)cc1 [ε-Viniferin, ε-viniferin]
4,5-DiHDPE concentration ([1]; mean): 20 nM | 4-HDHA concentration ([1]; mean): 6.8 nM | 5(6)-EpETrE concentration ([1]; mean): 45 nM | 5,6-DiHETE concentration ([1]; mean): < 0.30 nM | 5,6-DiHETrE concentration ([1]; mean): 1.9 nM | 5-HEPE concentration ([1]; mean): 1.2 nM | 5-HETE concentration ([1]; mean): 1.2 nM | 5-iPF2α concentration ([1]; mean): 2.3^‡ nM | 5-oxo-ETE concentration ([1]; mean): 14 nM | 6-keto-PGF1α concentration ([1]; mean): 29 nM | 7,8-DiHDPE concentration ([1]; mean): 1.9 nM | 7-HDHA concentration ([1]; mean): 1.7 nM | 8(9)-EpETE concentration ([1]; mean): 1.5 nM | 8(9)-EpETrE concentration ([1]; mean): 9.8 nM | 8,9-DiHETE concentration ([1]; mean): 1.2 nM | 8,9-DiHETrE concentration ([1]; mean): 4.4 nM | 8,15-DiHETE concentration ([1]; mean): < 0.80 nM | 8-HDHA concentration ([1]; mean): 9.0 nM | 8-HEPE concentration ([1]; mean): < 0.60 nM | 8-HETE concentration ([1]; mean): 4.2 nM | 8-iPF2α concentration ([1]; mean): < 0.10 nM | 9(10)-EpODE concentration ([1]; mean): 9.2 nM | 9(10)-EpOME concentration ([1]; mean): 84 nM | 9(10)-Epoxystearic acid concentration ([1]; mean): 66 nM | 9,10,13-TriHOME concentration ([1]; mean): 16 nM | 9,10-DiHODE concentration ([1]; mean): 3.9 nM | 9,10-DiHOME concentration ([1]; mean): 43^* nM | 9,10-Dihydroxystearic acid concentration ([1]; mean): 170 nM | 9,12,13-TriHOME concentration ([1]; mean): 110 nM | 9-HETE concentration ([1]; mean): 2.9 nM | 9-HODE concentration ([1]; mean): 250 nM | 9-HOTrE concentration ([1]; mean): 5.0 nM | 9-oxo-ODE concentration ([1]; mean): 53 nM | 10(11)-EpDPE concentration ([1]; mean): 15 nM | 10,11-DiHDPE concentration ([1]; mean): 2.2^† nM | 10-HDHA concentration ([1]; mean): 2.2 nM | 11(12)-EpETE concentration ([1]; mean): 2.0 nM | 11(12)-EpETrE concentration ([1]; mean): 27 nM | 11,12-DiHETE concentration ([1]; mean): 1.0^* nM | 11,12-DiHETrE concentration ([1]; mean): 5.5^† nM | 11-HDHA concentration ([1]; mean): 2.8 nM | 11-HETE concentration ([1]; mean): 7.0 nM | 12(13)-EpODE concentration ([1]; mean): 3.9 nM | 12(13)-EpOME concentration ([1]; mean): 72 nM | 12,13-DiHODE concentration ([1]; mean): < 2.0 nM | 12,13-DiHOME concentration ([1]; mean): 45^‡ nM | 12-HEPE concentration ([1]; mean): 6.8 nM | 12-HETE concentration ([1]; mean): 32 nM | 13(14)-EpDPE concentration ([1]; mean): 12 nM | 13,14-DiHDPE concentration ([1]; mean): 1.6^‡ nM | 13,14-dihydro-15-keto-PGE1 concentration ([1]; mean): 0.62 nM | 13,14-dihydro-15-keto-PGF2α concentration ([1]; mean): 7.0 nM | 13-HDHA concentration ([1]; mean): 3.8 nM | 13-HODE concentration ([1]; mean): 230 nM | 13-HOTrE concentration ([1]; mean): 8.5 nM | 13-oxo-ODE concentration ([1]; mean): 9.4 nM | 14(15)-EpETE concentration ([1]; mean): 1.8 nM | 14(15)-EpETrE concentration ([1]; mean): 21 nM | 14,15-DiHETE concentration ([1]; mean): 2.1^‡ nM | 14,15-DiHETrE concentration ([1]; mean): 12^‡ nM | 14-HDHA concentration ([1]; mean): 18 nM | 15(16)-EpODE concentration ([1]; mean): 12 nM | 15(S)-HETrE concentration ([1]; mean): 5.2 nM | 15,16-DiHODE concentration ([1]; mean): 17^† nM | 15-HEPE concentration ([1]; mean): 1.7 nM | 15-HETE concentration ([1]; mean): 14 nM | 15-oxo-ETE concentration ([1]; mean): 2.8 nM | 16(17)-EpDPE concentration ([1]; mean): 11 nM | 16,17-DiHDPE concentration ([1]; mean): 3.0^‡ nM | 16-HDHA concentration ([1]; mean): 2.4 nM | 17(18)-EpETE concentration ([1]; mean): 3.2 nM | 17,18-DiHETE concentration ([1]; mean): 5.6^‡ nM | 17-HDHA concentration ([1]; mean): 9.0 nM | 18-HEPE concentration ([1]; mean): 1.6 nM | 19(20)-EpDPE concentration ([1]; mean): 17 nM | 19,20-DiHDPE concentration ([1]; mean): 17^‡ nM | 20-HDHA concentration ([1]; mean): 9.1^* nM | 20-HEPE concentration ([1]; mean): 4.1^‡ nM | 20-HETE concentration ([1]; mean): < 2.6 nM | EKODE concentration ([1]; mean): 34 nM | PGD1 concentration ([1]; mean): 0.91 nM | PGD2 concentration ([1]; mean): 13 nM | PGE1 concentration ([1]; mean): 0.88 nM | PGE2 concentration ([1]; mean): 4.2 nM | PGF1α concentration ([1]; mean): 2.5 nM | TXB2 concentration ([1]; mean): 8.4 nM | TxB3 concentration ([1]; mean): < 0.05 nM | dihomo-PGF2α concentration ([1]; mean): 1.0 nM | PGF2α concentration ([1]; mean (first listing, r6)): 12 nM | PGF2α concentration ([1]; mean (second listing, r9)): 12 nM | 1a,1b-dihomo-PGF2α [2, 3]: 3.2^† nM | 4,5-DiHDPE [2, 3]: 26^‡ nM | 4-HDHA [2, 3]: 22 nM | 5(6)-EpETrE [2, 3]: 70 nM | 5,6-DiHETrE [2, 3]: 2.2^‡ nM | 5-HEPE [2, 3]: 1.1 nM | 5-HETE [2, 3]: 13 nM | 5-oxo-ETE [2, 3]: 24 nM | 6-keto-PGF1α [2, 3]: 108^‡ nM | 7,8-DiHDPE [2, 3]: 1.9 nM | 7-HDHA [2, 3]: 2.7 nM | 8(9)-EpETrE [2, 3]: 15 nM | 8,9-DiHETrE [2, 3]: 2.2^* nM | 8-HDHA [2, 3]: 18^* nM | 8-HETE [2, 3]: 4.4 nM | 8-iPF2a [2, 3]: 2.7^† nM | 9(10)-EpODE [2, 3]: 9.9 nM | 9(10)-EpOME [2, 3]: 110 nM | 9(10)-Epoxystearic acid [2, 3]: 64 nM | 9,10,13-TriHOME [2, 3]: 10 nM | 9,10-DiHODE [2, 3]: 2.0 nM | 9,10-DiHOME [2, 3]: 27 nM | 9,10-Dihydroxystearic acid [2, 3]: 87 nM | 9,12,13-TriHOME [2, 3]: 69^‡ nM | 9-HETE [2, 3]: 3.6 nM | 9-HODE [2, 3]: 380^† nM | 9-HOTrE [2, 3]: 5.8 nM | 9-oxo-ODE [2, 3]: 73 nM | 10(11)-EpDPE [2, 3]: 27 nM | 10,11-DiHDPE [2, 3]: 2.3 nM | 10-HDHA [2, 3]: 3.6 nM | 11(12)-EpETE [2, 3]: 1.4 nM | 11(12)-EpETrE [2, 3]: 35 nM | 11,12-DiHETrE [2, 3]: 1.8^‡ nM | 11-HDHA [2, 3]: 5.4 nM | 11-HETE [2, 3]: 22^† nM | 12(13)-EpODE [2, 3]: 4.3 nM | 12(13)-EpOME [2, 3]: 80 nM | 12,13-DiHOME [2, 3]: 32^† nM | 12-HEPE [2, 3]: 5.0 nM | 12-HETE [2, 3]: 47 nM | 13(14)-EpDPE [2, 3]: 22 nM | 13,14-DiHDPE [2, 3]: 1.4 nM | 13,14-dihydro-15-keto-PGF2α [2, 3]: 4.6^‡ nM | 13-HDHA [2, 3]: 7.7 nM | 13-HODE [2, 3]: 310^† nM | 13-HOTrE [2, 3]: 6.0 nM | 13-oxo-ODE [2, 3]: 8.3 nM | 14(15)-EpETE [2, 3]: 1.7 nM | 14(15)-EpETrE [2, 3]: 29 nM | 14,15-DiHETE [2, 3]: 0.38^‡ nM | 14,15-DiHETrE [2, 3]: 3.4^‡ nM | 14-HDHA [2, 3]: 20 nM | 15(16)-EpODE [2, 3]: 22 nM | 15(S)-HETrE [2, 3]: 8.0^‡ nM | 15,16-DiHODE [2, 3]: 22 nM | 15-HETE [2, 3]: 30^* nM | 15-oxo-ETE [2, 3]: 9.3 nM | 16(17)-EpDPE [2, 3]: 21 nM | 16,17-DiHDPE [2, 3]: 2.7^‡ nM | 16-HDHA [2, 3]: 4.9^* nM | 17(18)-EpETE [2, 3]: 2.4 nM | 17,18-DiHETE [2, 3]: 1.8^‡ nM | 17-HDHA [2, 3]: 15 nM | 18-HEPE [2, 3]: 1.5 nM | 19(20)-EpDPE [2, 3]: 36 nM | 19,20-DiHDPE [2, 3]: 31^‡ nM | 20-HDHA [2, 3]: 17 nM | 20-HEPE [2, 3]: 11 nM | EKODE [2, 3]: 92^‡ nM | PGD2 [2, 3]: 19^† nM | PGE1 [2, 3]: 8.3 nM | PGE2 [2, 3]: 110 nM | PGF1α [2, 3]: 7.7^‡ nM | PGF2α [2, 3]: 63^‡ nM | TXB2 [2, 3]: 4.9^‡ nM | 5,6-DiHETE [2, 4]: < 0.25 nM | 5-iPF2α [2, 4]: 1.5^‡ nM | 8(9)-EpETE [2, 4]: 1.2 nM | 12,13-DiHODE [2, 4]: < 2.0 nM | 13,14-dihydro-15-keto-PGE1 [2, 4]: 0.49 nM | 20-HETE [2, 4]: 3.6^* nM | PGD1 [2, 4]: 0.84^† nM | PGF2α ([2]; kidney tissue 24 h after LPS treatment, LPS +, mean, second listing of PGF2α (r9)): 63 nM | kidney 6-keto-PGF1α level [2, 5]: elevated | kidney 8-iPGF2α level [2, 5]: elevated | kidney 13,14-dihydro-15-keto-PGE1 level [2, 5]: elevated
